According to patent US7329644B2, “Preparation and use of cyclic and branched peptides and their labelled derivatives as therapeutic agents, cholecystokinin agonists or antagonists, and diagnostic agents to identify and locate tumours” (Bracco Imaging S.p.A., priority 2001, dated 2008):
Read-outs that look alike come from different tables or passages of the source. Where a SMILES comes first, the peptide text is derived from it. Bridges are numbered along the chain shown (N, C = ends). [ ]: non-standard residue; d: D form. Dap = NC[C@H](N)C(=O)O

Legend:
[1] = test system: type A cholecystokinin receptor; assay: Intracellular calcium response in myenteric neurones (confocal microscopy); format: cell-based; conditions: perfusion for 60 seconds
Source text: Biological tests have been carried out to confirm the activity of the cyclic compound of formula (IV), using neurone cells which express type A cholecystokinin receptor. […] Both these compounds should show a lower level of activity than the corresponding analogs containing the sulphate group on the tyrosine residue. The biological activity tests involved the use of myenteric neurones as receptor-expressing cells, and the use of a confocal microscope with a suitable software package to measure peptide activity. The tests were based on the following assumptions: • 1) myenteric neurones (of the intestinal wall) normally express type A CCK receptor • 2) binding between CCK and the receptor induces excitation of the cell (change in membrane potential), which can be recorded with electrophysiology studies • 3) the cell excitation is coupled to the passage of calcium from the outside to the inside of the cell through specific membrane channels • 4) if the calcium is rendered fluorescent (using calcium chelators which modify the emission wavelength if they are excited at a particular wavelength), the increased concentration of the intracellular calcium in response to a stimulus can be recorded • 5) confocal laser microscopy with the aid of specific software therefore enables these phenomena to be recorded, and the fluorescence to be converted into the intracellular calcium concentration.

[2] = biological target: T1, fragment 1-47 of type A cholecystokinin receptor, CCKA-R(1-47) (Homo sapiens, UniProt P32238); assay: Fluorescence spectroscopy binding to receptor fragment CCKA-R(1-47)
T1 construct: Fragment 1-47 of type A receptor, CCKA-R(1-47), and the compound of formula (IV), both synthesised by solid-phase peptide synthesis methods, were used; made in house; host or cells: chemical solid-phase peptide synthesis (no expression host)
T1 sequence (P32238 1-47): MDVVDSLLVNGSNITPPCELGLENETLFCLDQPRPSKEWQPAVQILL
Source text: The binding between the compound prepared as described in example 1 and fragment 1-47 of type A cholecystokinin receptor was studied with fluorescence spectroscopy. Although the compound of formula (IV), as it has no sulphate functions on the tyrosine residue, should have greater affinity for type B cholecystokinin receptor, the experiment performed and the results obtained are entirely legitimate, because the receptor fragment used contains no residues (Arg 197) which are known to be responsible for interaction with the sulphate group.
Fragment 1-47 of type A receptor, CCKA-R(1-47), and the compound of formula (IV), both synthesised by solid-phase peptide synthesis methods, were used. Reference should be made to example 1 for the synthesis of compound (IV); for the synthesis of the receptor fragment, see R. Ragone, 47-53, 56, 2001, Biopolymers).
The interaction between receptor fragment CCKA-R(1-47) and compound (IV) was observed by monitoring the tryptophan fluorescence. The emission spectra were recorded at room temperature using a Jasco FP-750 spectrofluorimeter at the excitation wavelength of 296 nm to excite the tryptophan selectively. Small aliquots of a concentrated solution of compound (IV) dissolved in phosphate buffer at pH 7.2 were added to a fixed volume of a solution of CCKA-R(1-47) dissolved in the same solvent, in the presence of a 10 mM solution of sodium dodecylsulphate micelles, used to mimic the cell membrane. […]
Increasing quantities of compound of formula (IV) were added from a concentrated master solution containing 10 mM SDS micelles.
As will be seen in FIG. 2, which exemplifies a typical saturation curve, the fluorescence signal is gradually quenched as a result of the binding. The experiments were performed at various receptor concentrations, and fluorescence quenching was always observed. […] To distinguish the modifications in fluorescence caused by the binding, the contributions to fluorescence of the receptor and peptide isolated were subtracted, and a small variation in fluorescence compared with the value measured was obtained.

Row | Molecule | intracellular calcium concentration [1] | Kd ([2]; experiments at various receptor concentrations, read-out: Kd range estimated by fitting procedures) [nM] | Kd ([2]; experiments at various receptor concentrations, standard deviation ±27 nM, read-out: Kd mean) [nM] | Kd ([2]; receptor concentration 2.6 μM, 10 mM phosphate buffer pH 7.2, 10 mM SDS micelles, fluorescence at 335 nm, read-out: Kd (binding curve of FIG. 2)) [nM]
1 | Asp-Tyr-Met-Gly-Trp-Met-Asp-Phe-amide [CCK8] | induce an increase in the intracellular calcium concentration |  |  | 
2 | CSCC[C@@H]1NC(=O)[C@H](Cc2c[nH]c3ccccc23)NC(=O)[C@@H](NC(=O)[C@H](CCSC)NC(=O)[C@H](Cc2ccc(O)cc2)NC(=O)[C@@H](N)CC(=O)O)CNC(=O)[C@H](CCCCN)NC(=O)[C@H](Cc2ccccc2)NC(=O)[C@H](CC(=O)O)NC1=O [(IV)] (H-DYM[Dap]WMDFK; lactam 4-C) |  | 50 to 200 | 120 | 255
